Active and inactive are the calls of the source. The rule behind the calls is not given here.
Columns and labels:
[1] = AUC (0 to t) in Sprague-Dawley rat at 5 mg/kg, iv by LC-MS/MS analysis; format: ADME, organism-based; set-up: dose 5 mg/kg; details: in vivo
Mus musculus [2] = assay: Anti-inflammatory activity in DSS-induced C57BL/6 mouse ulcerative colitis model assessed as suppression of TNFalpha content in serum at 20 mg/kg, po administrated for 6 days measured on day 9; format: functional, organism-based; details: time 6.0 day
[3] = Cmax in Sprague-Dawley rat at 5 mg/kg, iv by LC-MS/MS analysis; format: ADME, organism-based; set-up: route intravenous, dose 5 mg/kg; details: in vivo
Mus musculus [4] = assay: Anti-ulcerative colitis activity in DSS-induced C57BL/6 mouse ulcerative colitis model assessed as reduction in fecal occult blood at 10 to 20 mg/kg, po administrated for 6 days measured on day 9; format: functional, organism-based; details: dose 10-20 mg/kg, time 6.0 day
Mus musculus [5] = assay: Anti-inflammatory activity in DSS-induced C57BL/6 mouse ulcerative colitis model assessed as suppression of TNFalpha content in colon tissue at 20 mg/kg, po administrated for 6 days measured on day 9; format: functional, organism-based; details: time 6.0 day
[6] = Volume of distribution at steady state in Sprague-Dawley rat at 5 mg/kg, iv by LC-MS/MS analysis; format: ADME, organism-based; details: in vivo
Mus musculus [7] = assay: Anti-inflammatory activity in DSS-induced C57BL/6 mouse ulcerative colitis model assessed as increase in IL-10 content in colon tissue at 20 mg/kg, po administrated for 6 days measured on day 9; format: functional, organism-based; details: time 6.0 day
[8] = MRT (0 to t) in Sprague-Dawley rat at 20 mg/kg, po by LC-MS/MS analysis; format: ADME, organism-based; details: in vivo
[9] = biological target: Receptor-type tyrosine-protein kinase FLT3 (Homo sapiens) (UniProt P36888); assay: Inhibition of human FLT3 at 0.1 uM relative to control
[10] = biological target: Serine/threonine-protein kinase 16 (Homo sapiens) (UniProt O75716); assay: Inhibition of human STK16 at 0.1 uM relative to control
[11] = Clearance in Sprague-Dawley rat at 5 mg/kg, iv by LC-MS/MS analysis; format: ADME, organism-based; details: in vivo
Mus musculus [12] = assay: Anti-ulcerative colitis activity in DSS-induced C57BL/6 mouse ulcerative colitis model assessed as recovery of colon epithelial and mucosal structure at 20 mg/kg, po administrated for 6 days measured on day 9 by microscopy based histopathological analysis; format: functional, organism-based; details: time 6.0 day
Mus musculus [13] = assay: Anti-ulcerative colitis activity in DSS-induced C57BL/6 mouse ulcerative colitis model assessed as increase in colon length at 10 to 20 mg/kg, po administrated for 6 days measured on day 9; format: functional, organism-based; details: dose 10-20 mg/kg, time 6.0 day
[14] = AUC (0 to t) in Sprague-Dawley rat at 20 mg/kg, po by LC-MS/MS analysis; format: ADME, organism-based; set-up: dose 20 mg/kg; details: in vivo
[15] = Half life in Sprague-Dawley rat at 5 mg/kg, iv by LC-MS/MS analysis; format: ADME, organism-based; details: in vivo
[16] = Cmax in Sprague-Dawley rat at 20 mg/kg, po by LC-MS/MS analysis; format: ADME, organism-based; set-up: route oral, dose 20 mg/kg; details: in vivo
[17] = Half life in Sprague-Dawley rat at 20 mg/kg, po by LC-MS/MS analysis; format: ADME, organism-based; details: in vivo
Mus musculus [18] = assay: Anti-ulcerative colitis activity in DSS-induced C57BL/6 mouse ulcerative colitis model assessed as reduction in watery stool at 10 to 20 mg/kg, po administrated for 6 days measured on day 9; format: functional, organism-based; details: dose 10-20 mg/kg, time 6.0 day
Mus musculus [19] = assay: Anti-inflammatory activity in DSS-induced C57BL/6 mouse ulcerative colitis model assessed as suppression of IL-6 content in colon tissue at 20 mg/kg, po administrated for 6 days measured on day 9; format: functional, organism-based; details: time 6.0 day
[20] = Oral bioavailability in Sprague-Dawley rat at 20 mg/kg by LC-MS/MS analysis; format: ADME, organism-based; details: in vivo
Mus musculus [21] = assay: Anti-ulcerative colitis activity in DSS-induced C57BL/6 mouse ulcerative colitis model assessed as recovery of colon crypts at 20 mg/kg, po administrated for 6 days measured on day 9 by microscopy based histopathological analysis; format: functional, organism-based; details: time 6.0 day
[22] = Metabolic stability in cryopreserved human liver microsomes assessed as half life; format: ADME, Microsome
Mus musculus [23] = assay: Anti- inflammatory activity in DSS-induced C57BL/6 mouse ulcerative colitis model assessed as suppression of IL-6 content in serum at 20 mg/kg, po administrated for 6 days measured on day 9; format: functional, organism-based; details: time 6.0 day
Mus musculus [24] = assay: Anti-ulcerative colitis activity in DSS-induced C57BL/6 mouse ulcerative colitis model assessed as recovery of body weight at 10 to 20 mg/kg, po administrated for 6 days measured on day 9; format: functional, organism-based; details: dose 10-20 mg/kg, time 6.0 day
[25] = MRT (0 to t) in Sprague-Dawley rat at 5 mg/kg, iv by LC-MS/MS analysis; format: ADME, organism-based; details: in vivo
Mus musculus [26] = assay: Anti-inflammatory activity in DSS-induced C57BL/6 mouse ulcerative colitis model assessed as increase in IL-10 content in serum at 20 mg/kg, po administrated for 6 days measured on day 9; format: functional, organism-based; details: time 6.0 day
[27] = Tmax in Sprague-Dawley rat at 20 mg/kg, po by LC-MS/MS analysis; format: ADME, organism-based; details: in vivo

Sequence of Serine/threonine-protein kinase 16 (Homo sapiens) (O75716 whole entry): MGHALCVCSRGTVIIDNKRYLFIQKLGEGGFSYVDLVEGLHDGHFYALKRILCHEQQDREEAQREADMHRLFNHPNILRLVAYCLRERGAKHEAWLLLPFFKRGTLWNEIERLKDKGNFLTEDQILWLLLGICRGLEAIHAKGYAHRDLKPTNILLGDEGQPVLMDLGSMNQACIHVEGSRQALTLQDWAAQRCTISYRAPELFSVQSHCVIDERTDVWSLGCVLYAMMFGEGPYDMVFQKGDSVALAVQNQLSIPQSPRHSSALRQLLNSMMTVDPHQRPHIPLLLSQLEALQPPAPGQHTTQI
Sequence of Receptor-type tyrosine-protein kinase FLT3 (Homo sapiens) (P36888 whole entry): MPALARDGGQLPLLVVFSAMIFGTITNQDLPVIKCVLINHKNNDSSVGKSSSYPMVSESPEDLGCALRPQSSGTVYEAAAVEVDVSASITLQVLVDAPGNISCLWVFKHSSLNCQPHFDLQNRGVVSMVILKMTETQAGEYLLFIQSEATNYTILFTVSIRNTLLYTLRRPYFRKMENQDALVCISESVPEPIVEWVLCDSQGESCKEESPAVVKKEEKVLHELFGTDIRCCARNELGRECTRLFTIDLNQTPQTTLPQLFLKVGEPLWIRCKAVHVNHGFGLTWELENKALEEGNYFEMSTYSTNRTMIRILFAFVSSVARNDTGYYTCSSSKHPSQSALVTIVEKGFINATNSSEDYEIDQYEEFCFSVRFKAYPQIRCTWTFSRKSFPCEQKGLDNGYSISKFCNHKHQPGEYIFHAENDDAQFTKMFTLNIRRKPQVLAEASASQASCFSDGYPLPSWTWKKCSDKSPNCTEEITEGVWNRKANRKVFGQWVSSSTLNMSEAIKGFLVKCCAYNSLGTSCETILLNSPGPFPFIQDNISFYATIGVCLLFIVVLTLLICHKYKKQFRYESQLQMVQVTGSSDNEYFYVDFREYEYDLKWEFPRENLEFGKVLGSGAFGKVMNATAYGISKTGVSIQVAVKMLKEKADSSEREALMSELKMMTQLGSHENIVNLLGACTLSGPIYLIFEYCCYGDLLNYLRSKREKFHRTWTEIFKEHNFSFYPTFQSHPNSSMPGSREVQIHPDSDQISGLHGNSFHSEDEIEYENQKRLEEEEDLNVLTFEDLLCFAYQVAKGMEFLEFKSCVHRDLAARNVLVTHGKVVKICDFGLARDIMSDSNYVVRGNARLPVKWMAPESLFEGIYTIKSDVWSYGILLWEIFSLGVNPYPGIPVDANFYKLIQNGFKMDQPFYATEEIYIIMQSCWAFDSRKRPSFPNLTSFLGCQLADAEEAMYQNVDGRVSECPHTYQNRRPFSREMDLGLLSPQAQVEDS

## N#CCCn1cc(-c2nc(Nc3ccc4c(ccn4S(=O)(=O)C(F)(F)F)c3)ncc2F)cn1
[1]
  AUC(0-t): 29 ng·h/mL
Mus musculus [2]
  Activity: Active
[3]
  Cmax: 48.5 ng/mL
Mus musculus [4]
  Activity: Active
Mus musculus [5]
  Activity: Active
[6]
  Vdss: 0.985 L/kg
Mus musculus [7]
  Activity: Active
[8]
  MRT last: 2.76 h
[9]
  inhibition: 32%
[10]
  inhibition: inactive
[11]
  clearance: 1.58 mL/min/kg
Mus musculus [12]
  Activity: Active
Mus musculus [13]
  Activity: Active
[14]
  AUC(0-t): 13.9 ng·h/mL
[15]
  half-life: 5.95 h
[16]
  Cmax: 8 ng/mL
[17]
  half-life: 3.64 h
Mus musculus [18]
  Activity: Active
Mus musculus [19]
  Activity: Active
[20]
  bioavailability: 12%
Mus musculus [21]
  Activity: Active
[22]
  half-life: 2.03 h
Mus musculus [23]
  Activity: Active
Mus musculus [24]
  Activity: Active
[25]
  MRT(t): 4.98 h
Mus musculus [26]
  Activity: Active
[27]
  Tmax: 1 h

From ChEMBL document CHEMBL4825658, “Discovery of 3-(4-(2-((1H-Indol-5-yl)amino)-5-fluoropyrimidin-4-yl)-1H-pyrazol-1-yl)propanenitrile Derivatives as Selective TYK2 Inhibitors for the Treatment of Inflammatory Bowel Disease” (J Med Chem, 2021)
